Molecular target: LDHC (Homo sapiens, UniProt P07864)
Assay: Coupled diaphorase assay (LDHC inhibition)
Format: biochemical
Details: 10 nM LDHC, 500 μM lactate, 150 μM NAD+, 3 μM resazurin, fluorescence readout of resorufin
Text: The inhibitory properties of the compounds were investigated using a coupled enzyme assay that links the lactate dehydrogenase (LDH) reaction to the production of fluorescent resorufin by diaphorase.
Human lactate dehydrogenases (LDH) catalyze the reversible interconversion between pyruvate and lactate. LDH is capable of catalyzing both the forward (pyruvate to lactate) and the reverse (lactate to pyruvate) reaction, using either NADH or NAD+ as cofactor. The reaction proceeds in either direction dependent on various factors, such as substrate availability, the presence of necessary cofactors, temperature and pH.
The coupled assay relies on the […] of NAD+ to NADH throughout the conversion of lactate to pyruvate by LDHC. The produced NADH serves as cofactor in the diaphorase reaction, which reduces non-fluorescent resazurin to fluorescent resorufin. Therefore, the assay indirectly monitors the rate of pyruvate production. Although the consumption or formation of NADH can be directly monitored due to the intrinsic fluorescence of the molecule (excitation: 340 nm, emission: 460 nm) there are problems linked to the direct readout method. It has been shown that many compounds in chemical libraries interfere with the assay due to fluorescent properties similar to NADH. Shifting the assay to longer wavelengths by coupling the LDH reaction to the conversion of resazurin to fluorescent resorufin by diaphorase reduces this compound interference. The assay direction was thus chosen to provide a robust and reliable assay.
For the determination of IC50 values a coupled diaphorase assay was adopted from Bembenek et al. (A Fluorescence-Based Coupling Reaction for Monitoring the Activity of Recombinant Human NAD Synthetase. ASSAY and Drug Development Technologies, 2005. 3(5): 533-541). Compounds were tested in duplicates using 2-fold, 3-fold or 4-fold serial dilutions including 11 individual concentrations, starting from 5000 μM to 30 μM depending on their activity in initial tests. Positive (without compound in the presence of DMSO) and inhibition controls (oxamate, 28.7 mM final concentration in assay) or no-substrate controls representing 100% inhibition were added. Oxamate is a well characterized inhibitor of LDH that inhibits LDH enzyme activity in the mM range in vitro with high specificity (Papacostantinou et al., J. Biol. Chem. 236: 278-284, 1961). The controls allowed for the calculation of the percentage inhibition for each data point. The assay buffer consisted of 50 mM HEPES pH 7.4, 5 mM MgCl2 and 0.05% pluronic acid F-127. Enzyme solution with final concentrations of 10 nM LDHC, as well as 0.2 U/ml diaphorase was dispensed into 384-well plates (Greiner bio-one) using a CyBi®-SELMA robotic pipettor. Compound dilutions and the enzyme were incubated for at least 15 to 20 min at room temperature. Thereafter, the substrate solution was added (final concentrations: 500 μM lactate, 150 μM NAD^+, 3 μM resazurin). The reaction was quenched by the addition of a stop solution (final concentrations: 20 mM EDTA, 400 mM NaCl, 40 mM pyruvate). Fluorescence was read out after 5 min of incubation at an excitation wavelength of 560 nm and an emission wavelength of 590 nm on a BMG labtech FLUOstar OPTIMA or a Perkin Elmer Victor X plate reader. […]

Sequence of LDHC (P07864 whole entry): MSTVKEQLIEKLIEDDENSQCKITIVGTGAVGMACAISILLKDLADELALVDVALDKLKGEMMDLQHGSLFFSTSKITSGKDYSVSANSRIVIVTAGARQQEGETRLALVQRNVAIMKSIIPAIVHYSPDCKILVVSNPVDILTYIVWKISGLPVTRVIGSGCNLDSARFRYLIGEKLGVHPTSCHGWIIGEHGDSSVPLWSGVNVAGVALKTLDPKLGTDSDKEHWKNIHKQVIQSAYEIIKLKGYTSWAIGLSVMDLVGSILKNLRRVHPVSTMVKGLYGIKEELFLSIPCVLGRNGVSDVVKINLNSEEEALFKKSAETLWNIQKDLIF

| SMILES | IC50 [µM] |
| --- | --- |
| O=C1NC(c2ccc(N3CCOCC3)cc2)(c2ccsc2)CC(OC(=O)c2ccncc2)=C1Sc1cc(Cl)ccc1Cl (stereo not shown) [Example 9, 5-((2,5-dichlorophenyl)thio)-2-(4-morpholinophenyl)-6-oxo-2-(thiophen-3-yl)-1,2,3,6-tetrahydropyridin-4-yl isonicotinate] | 0.5 to 10 |
| O=C1CC(c2ccc(N3CCOCC3)cc2)(c2ccsc2)NC(=O)C1Sc1ccccc1Cl (single isomer, unassigned) [7 Enantiomer 2] | 10 to 50 |
| O=C1CC(c2ccc(N3CCOCC3)cc2)(c2ccsc2)NC(=O)C1Sc1cc(Cl)ccc1Cl (single isomer, unassigned) [6 Enantiomer 1] | 10 to 50 |
| O=C1CC(c2ccc(N3CCOCC3)cc2)(c2ccsc2)NC(=O)C1Sc1ccccc1Cl (racemic) [Example 7, 3-((2-chlorophenyl)thio)-6-(4-morpholinophenyl)-6-(thiophen-3-yl)piperidine-2,4-dione] | 0.5 to 10 |
| O=C1CC(c2ccc(N3CCOCC3)cc2)(c2ccsc2)NC(=O)C1Sc1ccccc1Cl (single isomer, unassigned) [7 Enantiomer 1] | 0.5 to 10 |
| O=C1CC(c2ccc(N3CCOCC3)cc2)(c2ccsc2)NC(=O)C1Sc1ccc(F)cc1Cl (stereo not shown) [Example 5, 3-((2-chloro-4-fluorophenyl)thio)-6-(4-morpholinophenyl)-6-(thiophen-3-yl)piperidine-2,4-dione] | 0.5 to 10 |
| O=C1CC(c2ccc(N3CCOCC3)cc2)(c2ccsc2)NC(=O)C1Sc1cc(Cl)ccc1Cl (racemic) [Example 6, 3-((2,5-dichlorophenyl)thio)-6-(4-morpholinophenyl)-6-(thiophen-3-yl)piperidine-2,4-dione] | 0.5 to 10 |
| O=C1CC(c2ccc(N3CCOCC3)cc2)(c2ccsc2)NC(=O)C1Sc1cc(Cl)ccc1Cl (single isomer, unassigned) [6 Enantiomer 2] | 50 to 100 |

Continued, values first:

| IC50 [µM] | SMILES |
| --- | --- |
| 0.5 to 10 | CC(C)CCOc1cccc(C2(c3ccsc3)CC(=O)C(Sc3ccccc3Cl)C(=O)N2)n1 (stereo not shown) [Example 12, 3-((2-chlorophenyl)thio)-6-(6-(isopentyloxy)pyridin-2-yl)-6-(thiophen-3-yl)piperidine-2,4-dione] |
| 0.5 to 10 | O=C1CC(c2ccsc2)(c2cccc(Cc3cccc(F)c3)n2)NC(=O)C1Sc1ccccc1Cl (stereo not shown) [Example 11, 3-((2-chlorophenyl)thio)-6-(6-(3-fluorobenzyl)pyridin-2-yl)-6-(thiophen-3-yl)piperidine-2,4-dione] |
| 0.5 to 10 | O=C1CC(c2ccsc2)(c2cccc(OCC3CCCC3)n2)NC(=O)C1Sc1ccc(F)cc1Cl (stereo not shown) [Example 2, 3-[(2-chloro-4-fluorophenyl)sulfanyl]-6-[6-(cyclopentylmethoxy)pyridin-2-yl]-6-(thiophen-3-yl)piperidine-2,4-dione] |
| 0.5 to 10 | O=C1CC(c2ccsc2)(c2cccc(OCC3CCCC3)n2)NC(=O)C1Sc1cc(Cl)ccc1Cl (stereo not shown) [Example 3, 6-[6-(cyclopentylmethoxy)pyridin-2-yl]-3-[(2,5-dichlorophenyl)sulfanyl]-6-(thiophen-3-yl)piperidine-2,4-dione] |
| 10 to 50 | O=C1CC(c2ccsc2)(c2cccc(OC3COC3)n2)NC(=O)C1Sc1ccccc1Cl (stereo not shown) [Example 10, 3-((2-chlorophenyl)thio)-6-(6-(oxetan-3-yloxy)pyridin-2-yl)-6-(thiophen-3-yl)piperidine-2,4-dione] |
| 50 to 100 | O=C1CC(c2ccsc2)(c2cccc(OCC3CCCC3)n2)NC(=O)C1Sc1ccc(Cl)cc1Cl (stereo not shown) [Example 1, 6-[6-(cyclopentylmethoxy)pyridin-2-yl]-3-[(2,4-dichlorophenyl)sulfanyl]-6-(thiophen-3-yl)piperidine-2,4-dione] |
| 50 to 100 | O=C1CC(c2ccsc2)(c2cccc(OCC3CCCC3)n2)NC(=O)C1Sc1cccc(Cl)c1Cl (stereo not shown) [Example 4, 6-[6-(cyclopentylmethoxy)pyridin-2-yl]-3-[(2,3-dichlorophenyl)sulfanyl]-6-(thiophen-3-yl)piperidine-2,4-dione] |
| 0.5 to 10 | O=C1CC(c2ccsc2)(c2cccc(OCC3CCCC3)n2)NC(=O)C1Sc1ccccc1Cl (stereo not shown) [Example 8, 3-((2-chlorophenyl)thio)-6-(6-(cyclopentylmethoxy)pyridin-2-yl)-6-(thiophen-3-yl)piperidine-2,4-dione] |

— patent US20200163950A1, “PIPERIDINE-DIONE DERIVATIVES FOR USE AS CONTRACEPTIVES” (SPERMATECH AS, priority 2017, published 2020)
